The values that follow come from patent US9403810B2, “Carboxamide derivatives” (Novartis AG, priority 2014, dated 2016).

For this assay, the target named is Smurf-1 (Homo sapiens (Human), UniProt Q9HCE7). Nature of the assay: HECT E3 ligase autoubiquitinylation TR-FRET assay (Smurf-1). Format: biochemical. The following applies: 8-point dose-response curve, 3 nM to 10 uM; 45 min incubation. The text has this: To determine the HECT E3 ligase selectivity of the compounds, a panel of biochemical HECT E3 ligase autoubiquitinylation assays was employed (Smurf-1, Smurf-2, WWP1, WWP2, ITCH, Nedd4, Nedd4L and E6AP). The conjugation of ubiquitin to a protein substrate is a multistep process. In an initial ATP-requiring step, a thioester bond is formed between the carboxyl terminus of ubiquitin and an internal cystein residue of the ubiquitin-activating enzyme (E1). Activated ubiquitin is then transferred to a specific cystein residue of an ubiquitin-conjugating enzyme (E2). E2s donate ubiquitin to a HECT E3 ligase (E3) from which it is transferred to the substrate protein. HECT E3 ligases can auto-ubiquitinylate. This event is detected in the TR-FRET (Time-Resolved Fluorescence Resonance Energy Transfer) assay used in this panel. The reaction mix contains E1, E2, tagged-E3, biotin-conjugated ubiquitin, the compound and ATP in a suitable buffer and is incubated for 45 minutes to allow auto-ubiquitinylation of the E3 ligase. To measure the extent of ubiquitinylated E3 ligase by TR-FRET, the donor fluorophore Europium cryptate (Eu3+ cryptate), conjugated to streptavidin which subsequently binds to biotinylated ubiquitin, and the modified allophycocyanin XL665 (HTRF® primary acceptor fluorophore) coupled to a tag-specific antibody (HA, His or GST), which recognizes the respective E3 ligase fusion proteins, are added after the reaction is complete. When these two fluorophores are brought together by a bimolecular interaction (in this case ubiquitinylation of the E3 ligase), a portion of the energy captured by the Cryptate during excitation is released through fluorescence emission at 620 nm, while the remaining energy is transferred to XL665. This energy is then released by XL665 as specific fluorescence at 665 nm. Light at 665 nm is emitted only through FRET with Europium.
Sequence of Smurf-1 (Q9HCE7 whole entry): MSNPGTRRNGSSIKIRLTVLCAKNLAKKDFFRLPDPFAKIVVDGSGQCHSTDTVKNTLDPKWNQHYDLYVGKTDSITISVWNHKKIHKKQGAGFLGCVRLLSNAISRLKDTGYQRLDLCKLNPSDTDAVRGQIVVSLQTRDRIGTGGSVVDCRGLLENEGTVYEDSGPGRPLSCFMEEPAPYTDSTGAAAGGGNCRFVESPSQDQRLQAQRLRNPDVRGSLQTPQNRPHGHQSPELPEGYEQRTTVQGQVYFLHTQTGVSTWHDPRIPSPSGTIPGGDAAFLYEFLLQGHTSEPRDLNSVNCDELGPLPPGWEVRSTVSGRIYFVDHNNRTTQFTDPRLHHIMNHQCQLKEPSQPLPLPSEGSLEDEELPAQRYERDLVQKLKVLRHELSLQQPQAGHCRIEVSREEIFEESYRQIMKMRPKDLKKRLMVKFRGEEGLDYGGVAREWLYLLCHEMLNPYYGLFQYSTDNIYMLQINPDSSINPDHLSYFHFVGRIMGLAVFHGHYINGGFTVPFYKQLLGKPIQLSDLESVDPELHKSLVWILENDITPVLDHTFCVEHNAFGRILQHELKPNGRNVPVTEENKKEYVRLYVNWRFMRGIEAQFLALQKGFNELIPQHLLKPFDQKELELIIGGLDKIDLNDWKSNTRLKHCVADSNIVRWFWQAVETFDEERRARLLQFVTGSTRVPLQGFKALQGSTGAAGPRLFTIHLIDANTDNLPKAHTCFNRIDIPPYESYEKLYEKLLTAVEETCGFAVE
Test and reference compounds are prepared at 180× [final] in 90% DMSO, and diluted 1:3 in 90% DMSO.
For the biochemical assay panel, 50 nl of the test compounds, reference compounds and buffer/DMSO control are transferred to the respective wells of a 384-well white GREINER “SMALL VOLUME” PS plate. The assay panel is run at room temperature on a Biomek FX liquid handling workstation. To the assay plates containing 50 nl compound or control solutions in 90% DMSO, 4.5 ul of E3 ligase solution were added per well, followed by 4.5 ul of the pre-incubated E1/E2/Ub mix or the pre-diluted ubiquitin (LOW control). Plates are shaken vigorously after each addition. In this assay the compound concentrations range from 3 nM to 10 uM in an 8-point dose-response curve.
After an incubation time of 45 min in the dark, the plates are transferred into the Pherastar fluorescence reader to measure the TR-FRET signal.

For `CO[C@@H]1C[C@@H](C(C)(C)C)O[C@@H](c2onc(C(=O)Nc3c(C)n(C)n(C4CCC4)c3=O)c2C)C1.CO[C@@H]1C[C@@H](c2onc(C(=O)Nc3c(C)n(C)n(C4CCC4)c3=O)c2C)O[C@@H](C(C)(C)C)C1` (mixture of isomers) [Example 14, 5-((2R,4R,6S)-6-(tert-butyl)-4-methoxytetrahydro-2H-pyran-2-yl)-N-(2-cyclobutyl-1,5-dimethyl-3-oxo-2,3-dihydro-1H-pyrazol-4-yl)-4-methylisoxazole-3-carboxamide and 5-((2S,4S,6R)-6-(tert-butyl)-4-methoxytetrahydro-2H-pyran-2-yl)-N-(2-cyclobutyl-1,5-dimethyl-3-oxo-2,3-dihydro-1H-pyrazol-4-yl)-4-methylisoxazole-3-carboxamide], the IC50 (in general, the concentration that inhibits the measured activity by half) amounted to 2500 nM. This counts as single-digit micromolar.

The compound `Cc1c(C(=O)Nc2c(C)n(C)n(C3CCCCC3)c2=O)noc1C1CC=CC(C(C)C)O1` (mixture of isomers) [Example 18] had an IC50 of 91 nM.

The compound `CO[C@H]1C[C@@H](c2onc(C(=O)Nc3c(C)n(C)n(C4CCCCC4)c3=O)c2C)O[C@@H](C(C)(C)C)C1` (racemic) [Example 13, 5-((2S,4R,6R)-6-(tert-butyl)-4-methoxytetrahydro-2H-pyran-2-yl)-N-(2-cyclohexyl-1,5-dimethyl-3-oxo-2,3-dihydro-1H-pyrazol-4-yl)-4-methylisoxazole-3-carboxamide and 5-((2R,4S,6S)-6-(tert-butyl)-4-methoxytetrahydro-2H-pyran-2-yl)-N-(2-cyclohexyl-1,5-dimethyl-3-oxo-2,3-dihydro-1H-pyrazol-4-yl)-4-methylisoxazole-3-carboxamide] returned an IC50 of 640 nM.

`Cc1c(C(=O)Nc2c(C)n(C)n(C3CCCCC3)c2=O)noc1[C@@H]1CC=C[C@H](C)O1` (racemic) [Example 19, N-(2-cyclohexyl-1,5-dimethyl-3-oxo-2,3-dihydro-1H-pyrazol-4-yl)-4-methyl-5-((2S,6S)-6-methyl-3,6-dihydro-2H-pyran-2-yl)isoxazole-3-carboxamide and N-(2-cyclohexyl-1,5-dimethyl-3-oxo-2,3-dihydro-1H-pyrazol-4-yl)-4-methyl-5-((2R,6R)-6-methyl-3,6-dihydro-2H-pyran-2-yl)isoxazole-3-carboxamide]: the IC50 stood at 1800 nM.

Consider `CO[C@H]1C[C@@H](c2onc(C(=O)Nc3c(C)n(C)n(C4CCCCC4)c3=O)c2C)O[C@@H](C(C)(C)C)C1` (single isomer, unassigned) [Example 13a, 5-((2S,4R,6R)-6-(tert-butyl)-4-methoxytetrahydro-2H-pyran-2-yl)-N-(2-cyclohexyl-1,5-dimethyl-3-oxo-2,3-dihydro-1H-pyrazol-4-yl)-4-methylisoxazole-3-carboxamide or 5-((2R,4S,6S)-6-(tert-butyl)-4-methoxytetrahydro-2H-pyran-2-yl)-N-(2-cyclohexyl-1,5-dimethyl-3-oxo-2,3-dihydro-1H-pyrazol-4-yl)-4-methylisoxazole-3-carboxamide], for which the midpoint of inhibition, the IC50, lay at 290 nM.

Compound `CO[C@H]1C[C@@H](c2onc(C(=O)Nc3c(C)n(C)n(C4CCCCC4)c3=O)c2C)O[C@@H](C(C)(C)C)C1` (single isomer, unassigned) [Example 13b, 5-((2S,4R,6R)-6-(tert-butyl)-4-methoxytetrahydro-2H-pyran-2-yl)-N-(2-cyclohexyl-1,5-dimethyl-3-oxo-2,3-dihydro-1H-pyrazol-4-yl)-4-methylisoxazole-3-carboxamide or 5-((2R,4S,6S)-6-(tert-butyl)-4-methoxytetrahydro-2H-pyran-2-yl)-N-(2-cyclohexyl-1,5-dimethyl-3-oxo-2,3-dihydro-1H-pyrazol-4-yl)-4-methylisoxazole-3-carboxamide] had an IC50 of 730 nM. This IC50 is about 2.5-fold higher than that of the compound before.

`Cc1c(C(=O)Nc2c(C)n(C)n(C3CCC3)c2=O)noc1[C@@H]1CCC[C@H](C(C)(C)C)O1` (single isomer, unassigned) [Example 15a, 5-((2S,6R)-6-(tert-Butyl)tetrahydro-2H-pyran-2-yl)-N-(2-cyclobutyl-1,5-dimethyl-3-oxo-2,3-dihydro-1H-pyrazol-4-yl)-4-methylisoxazole-3-carboxamide or 5-((2R,6S)-6-(tert-Butyl)tetrahydro-2H-pyran-2-yl)-N-(2-cyclobutyl-1,5-dimethyl-3-oxo-2,3-dihydro-1H-pyrazol-4-yl)-4-methylisoxazole-3-carboxamide] displayed a 50% inhibitory concentration (IC50) of 290 nM.

For `Cc1c(C(=O)Nc2c(C)n(C)n(C3CCC3)c2=O)noc1[C@H]1CCC[C@@H](C(C)(C)C)O1` (single isomer, unassigned) [Example 15b, 5-((2R,6S)-6-(tert-butyl)tetrahydro-2H-pyran-2-yl)-N-(2-cyclobutyl-1,5-dimethyl-3-oxo-2,3-dihydro-1H-pyrazol-4-yl)-4-methylisoxazole-3-carboxamide or 5-((2S,6R)-6-(tert-Butyl)tetrahydro-2H-pyran-2-yl)-N-(2-cyclobutyl-1,5-dimethyl-3-oxo-2,3-dihydro-1H-pyrazol-4-yl)-4-methylisoxazole-3-carboxamide], half-maximal inhibition (IC50) was put at 630 nM.

`Cc1c(C(=O)Nc2c(C)n(C)n(C3CCCCC3)c2=O)noc1[C@@H]1CCC[C@H](C(C)(C)C)O1` (single isomer, unassigned) [Example 16, 5-((2S,6R)-6-(tert-butyl)tetrahydro-2H-pyran-2-yl)-N-(2-cyclohexyl-1,5-dimethyl-3-oxo-2,3-dihydro-1H-pyrazol-4-yl)-4-methylisoxazole-3-carboxamide or 5-((2R,6S)-6-(tert-butyl)tetrahydro-2H-pyran-2-yl)-N-(2-cyclohexyl-1,5-dimethyl-3-oxo-2,3-dihydro-1H-pyrazol-4-yl)-4-methylisoxazole-3-carboxamide] had an IC50 of 37 nM.

Regarding `Cc1c(C(=O)Nc2c(C)n(C)n(C3CCCCC3)c2=O)noc1C1=CCC(C(C)C)CC1` (centres unmarked) [Example 1, N-(2-Cyclohexyl-1,5-dimethyl-3-oxo-2,3-dihydro-1H-pyrazol-4-yl)-5-(4-isopropylcyclohex-1-en-1-yl)-4-methylisoxazole-3-carboxamide], 2.8 nM corresponded to half-maximal inhibition (IC50). This IC50 is about 13-fold lower than that of the compound before.

`CCC1CC(C)CC=C1c1onc(C(=O)Nc2c(C)n(C)n(C3CCCCC3)c2=O)c1C` (centres unmarked) [Example 1.1, N-(2-Cyclohexyl-1,5-dimethyl-3-oxo-2,3-dihydro-1H-pyrazol-4-yl)-5-(6-ethyl-4-methylcyclohex-1-en-1-yl)-4-methylisoxazole-3-carboxamide] came in with an IC50 of 2.1 nM.

For the compound `Cc1c(C(=O)Nc2c(C)n(C)n(C3CCCCC3)c2=O)noc1C1=CCCCC1(C)C` [Example 1.2, N-(2-Cyclohexyl-1,5-dimethyl-3-oxo-2,3-dihydro-1H-pyrazol-4-yl)-5-(6,6-dimethylcyclohex-1-en-1-yl)-4-methylisoxazole-3-carboxamide], the half-inhibitory concentration (IC50) stood at 14 nM.

For the compound `CCC1CC=C(c2onc(C(=O)Nc3c(C)n(C)n(C4CCCCC4)c3=O)c2C)CC1` (centres unmarked) [Example 1.3, N-(2-Cyclohexyl-1,5-dimethyl-3-oxo-2,3-dihydro-1H-pyrazol-4-yl)-5-(4-ethylcyclohex-1-en-1-yl)-4-methylisoxazole-3-carboxamide], it took 1.8 nM to reach half-maximal inhibition (IC50).

Turning to `Cc1c(C(=O)Nc2c(C)n(C)n(C3CCCCC3)c2=O)noc1C1=CCC(C(C)(C)C)CC1` (centres unmarked) [Example 1.4, 5-(4-(tert-Butyl)cyclohex-1-en-1-yl)-N-(2-cyclohexyl-1,5-dimethyl-3-oxo-2,3-dihydro-1H-pyrazol-4-yl)-4-methylisoxazole-3-carboxamide], half-maximal inhibition (IC50) required 3.2 nM.
